A word on the MIC90: it is an inhibitory concentration at the 90% level, which refers to growth in some studies and to a panel of isolates in others.

Consider two compounds from patent publication US11434227B2, “Broad spectrum antibacterial activity of novel bisbenzimidazoles targeting topoisomerase IA and the synergistic composition of bisbenzimidazole with efflux pump inhibitors against pathogenic bacteria” (Jawaharlal Nehru University (JNU), priority 2016, dated 2022).

Test systems include Enterococcus sp. (2105); P. aeruginosa (Ps 366); E. coli KK45; Providencia sp. (P592); K. planticola (1164); Enterococcus sp. (1121); A. baumannii (MTCC1920); E. coli ATCC25922; P. aeruginosa (MTCC1688); A. baumannii (AB387).
Common to all, as to test: HN12b in combination with efflux pump inhibitors (CB method, FICI)
Assay [1] concerns Providencia sp. (MTCC 2102).
The subject of assay [2] is K. planticola (MTCC 2272).

With `N#CC(C#N)=NNc1cccc(Cl)c1` [CCCP, carbonyl cyanide-m-chlorophenyl hydrazone, reference compound], the MIC90 with Enterococcus sp. (2105) (Enterococcus) was 27.7 µg/mL; in the assay on P. aeruginosa (Ps 366) (Pseudomonas aeruginosa), 128 µg/mL; with E. coli KK45 (Escherichia coli, KK45), 12.3 µg/mL; with Providencia sp. (P592) (Providencia) it was 67.2 µg/mL; in assay [1] (Providencia, MTCC2102), 10.9 µg/mL; in the assay on K. planticola (1164) (Klebsiella planticola) it was 14.7 µg/mL. Moreover, the MIC90 in the assay on Enterococcus sp. (1121) (Enterococcus) is 16.2 µg/mL; in the assay with A. baumannii (MTCC1920) (Acinetobacter baumannii, MTCC1920), 30.2 µg/mL; with E. coli ATCC25922 (Escherichia coli, ATCC25922), 11.8 µg/mL; in the assay with P. aeruginosa (MTCC1688) (Pseudomonas aeruginosa, MTCC1688) it was 128 µg/mL; in the assay with A. baumannii (AB387) (Acinetobacter baumannii), 12 µg/mL; in assay [2] (Klebsiella planticola, MTCC2272), 13.9 µg/mL.

Regarding “phenylalanine-arginine-β-naphthylamide [PAβN, reference compound]”, the “(BA) MIC90” value in the assay on Enterococcus sp. (2105) (Enterococcus sp. (2105), PAβN in presence of HN12b) stood at 59 µg/mL; in the assay with P. aeruginosa (Ps 366) (P. aeruginosa (Ps 366), PAβN in presence of HN12b), 55 µg/mL; in the assay with E. coli KK45 (E. coli KK45, PAβN in presence of HN12b) it was 10 µg/mL; in the assay with Providencia sp. (P592) (Providencia sp. (P592), PAβN in presence of HN12b), 38 µg/mL; in [1] (Providencia sp. (MTCC 2102), PAβN in presence of HN12b), 58 µg/mL; in the assay with K. planticola (1164) (K. planticola (1164), PAβN in presence of HN12b) it was 62 µg/mL. The “(BA) MIC90” value in the assay with Enterococcus sp. (1121) (Enterococcus sp. (1121), PAβN in presence of HN12b) amounted to 63 µg/mL; in the assay on A. baumannii (MTCC1920) (A. baumannii (MTCC1920), PAβN in presence of HN12b), 59 µg/mL; with E. coli ATCC25922 (E. coli ATCC25922, PAβN in presence of HN12b), 4.8 µg/mL; in the assay with P. aeruginosa (MTCC1688) (P. aeruginosa (MTCC1688), PAβN in presence of HN12b), 60 µg/mL; in the assay on A. baumannii (AB387) (A. baumannii (AB387), PAβN in presence of HN12b), 32 µg/mL; in [2] (K. planticola (MTCC 2272), PAβN in presence of HN12b), 62 µg/mL. In addition, the MIC90 in the assay with Enterococcus sp. (2105) (Enterococcus sp. (2105), single drug alone (A, B, C)) was greater than 128 µg/mL; in the assay with P. aeruginosa (Ps 366) (P. aeruginosa (Ps 366), single drug alone (A, B, C)) it was 120.2 µg/mL; in the assay with Providencia sp. (P592) (Providencia sp. (P592), single drug alone (A, B, C)), greater than 128 µg/mL; in assay [1] (Providencia sp. (MTCC 2102), single drug alone (A, B, C)) it was greater than 128 µg/mL; in the assay with K. planticola (1164) (K. planticola (1164), single drug alone (A, B, C)), greater than 128 µg/mL; with Enterococcus sp. (1121) (Enterococcus sp. (1121), single drug alone (A, B, C)), greater than 128 µg/mL. In addition, the MIC90 with A. baumannii (MTCC1920) (A. baumannii (MTCC1920), single drug alone (A, B, C)) is greater than 128 µg/mL; in the assay on E. coli ATCC25922 (E. coli ATCC25922, single drug alone (A, B, C)), 64 µg/mL; in the assay on P. aeruginosa (MTCC1688) (P. aeruginosa (MTCC1688), single drug alone (A, B, C)), 123 µg/mL; with A. baumannii (AB387) (A. baumannii (AB387), single drug alone (A, B, C)), greater than 128 µg/mL; in [2] (K. planticola (MTCC 2272), single drug alone (A, B, C)), greater than 128 µg/mL.
